Measurements reported in US10214508B2, “Nitrogen-containing heterocyclic compound” (Takeda Pharmaceutical Company Limited, priority 2014, dated 2019).

The compounds below were run against T1, human M1 receptor (hCHRM1) (Homo sapiens, UniProt P11229) (assay: Measurement of M1 receptor positive allosteric modulator (M1PAM) activity, calcium fluorescence (FLIPRtetra)). Conditions: 10 μM test compound with acetylcholine at EC20 (final 0.6-0.8 nM); 100% = acetylcholine 1 μM, 0% = DMSO; CHO-K1 cells expressing hCHRM1.
T1 construct: expressed in transfected cells
T1 sequence (P11229 1-460): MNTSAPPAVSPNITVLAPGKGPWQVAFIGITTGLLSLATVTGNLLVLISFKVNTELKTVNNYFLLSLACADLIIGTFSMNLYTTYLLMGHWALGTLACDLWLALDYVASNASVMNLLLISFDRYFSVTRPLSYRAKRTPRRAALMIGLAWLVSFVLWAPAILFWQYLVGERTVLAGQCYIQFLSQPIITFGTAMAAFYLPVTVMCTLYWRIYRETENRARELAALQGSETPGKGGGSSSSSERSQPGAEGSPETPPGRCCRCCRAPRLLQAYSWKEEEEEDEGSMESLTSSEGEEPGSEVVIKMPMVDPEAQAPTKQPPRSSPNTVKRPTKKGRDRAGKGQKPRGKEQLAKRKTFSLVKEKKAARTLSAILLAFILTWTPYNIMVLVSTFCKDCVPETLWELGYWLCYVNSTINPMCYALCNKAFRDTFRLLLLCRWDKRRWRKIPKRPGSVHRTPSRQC
Format: cell-based
Procedure, shortened: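 CHO-K1 cells stably expressing hM1 were Fluo-4-loaded; compound added with acetylcholine at EC20 (0.6-0.8 nM final), calcium fluorescence read 1 min on FLIPRtetra. Activity scaled between DMSO (0%) and 1 μM acetylcholine (100%); inflection point of concentration–response reported as IP.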
In the case of `COc1nc(C(=O)N[C@H]2CCCC[C@@H]2O)cc(Cc2ccc(-c3ccn(C)n3)cc2)c1C` [Example 88, N-((1S,2S)-2-hydroxycyclohexyl)-6-methoxy-5-methyl-4-(4-(1-methyl-1H-pyrazol-3-yl)benzyl)pyridine-2-carboxamide], the “activity (%) at 10 μM” value is reported as 99%. For `COc1nc(C(=O)N[C@H]2COCC[C@@H]2O)cc(Cc2ccc(-c3ccn(C)n3)cc2)c1C` [Example 89, 1,5-anhydro-2,4-dideoxy-2-(((6-methoxy-5-methyl-4-(4-(1-methyl-1H-pyrazol-3-yl)benzyl)pyridin-2-yl)carbonyl)amino)-L-threo-pentitol], the “activity (%) at 10 μM” value was 101%. With `COc1nc(C(=O)N[C@H]2CCC[C@@H]2O)cc(Cc2ccc(-c3ccn(C)n3)cc2)c1C` [Example 90, N-((1S,2S)-2-hydroxycyclopentyl)-6-methoxy-5-methyl-4-(4-(1-methyl-1H-pyrazol-3-yl)benzyl)pyridine-2-carboxamide] the “activity (%) at 10 μM” value was 106%. With `COc1nc(C(=O)N[C@H]2CCCC[C@@H]2O)cc(Cc2ccc(-n3cccn3)cc2)c1C` [Example 91, N-((1S,2S)-2-hydroxycyclohexyl)-6-methoxy-5-methyl-4-(4-(1H-pyrazol-1-yl)benzyl)pyridine-2-carboxamide] the “activity (%) at 10 μM” value was 98%. `COc1nc(C(=O)N[C@H]2COCC[C@@H]2O)cc(Cc2ccc(-n3cccn3)cc2)c1C` [Example 92, 1,5-anhydro-2,4-dideoxy-2-(((6-methoxy-5-methyl-4-(4-(1H-pyrazol-1-yl)benzyl)pyridin-2-yl)carbonyl)amino)-L-threo-pentitol] was tested, and the “activity (%) at 10 μM” value was 99%. With `COc1nc(C(=O)N[C@H]2CCC[C@@H]2O)cc(Cc2ccc(-n3cccn3)cc2)c1C` [Example 93, N-((1S,2S)-2-hydroxycyclopentyl)-6-methoxy-5-methyl-4-(4-(1H-pyrazol-1-yl)benzyl)pyridine-2-carboxamide] the “activity (%) at 10 μM” value was 105%. With `O=C(N[C@H]1CCCC[C@@H]1O)c1cc(Cc2ccc(-n3cccn3)cc2)c(OC(F)F)cn1` [Example 94, 5-(difluoromethoxy)-N-((1S,2S)-2-hydroxycyclohexyl)-4-(4-(1H-pyrazol-1-yl)benzyl)pyridine-2-carboxamide] the “activity (%) at 10 μM” value was 101%. `O=C(N[C@H]1COCC[C@@H]1O)c1cc(Cc2ccc(-n3cccn3)cc2)c(OC(F)F)cn1` [Example 95, 1,5-anhydro-2,4-dideoxy-2-(((5-(difluoromethoxy)-4-(4-(1H-pyrazol-1-yl)benzyl)pyridin-2-yl)carbonyl)amino)-L-threo-pentitol] was tested, and the “activity (%) at 10 μM” value was 99%. With `Cc1nc(C(=O)N[C@H]2COCC[C@@H]2O)cc(Cc2ccc(-c3ccn(C)n3)cc2)c1Cl` [Example 96, 1,5-anhydro-2-(((5-chloro-6-methyl-4-(4-(1-methyl-1H-pyrazol-3-yl)benzyl)pyridin-2-yl)carbonyl)amino)-2,4-dideoxy-L-threo-pentitol] the “activity (%) at 10 μM” value was 112%. With `Cc1nc(C(=O)N[C@H]2CCC[C@@H]2O)cc(Cc2ccc(-c3ccn(C)n3)cc2)c1Cl` [Example 97, 5-chloro-N-((1S,2S)-2-hydroxycyclopentyl)-6-methyl-4-(4-(1-methyl-1H-pyrazol-3-yl)benzyl)pyridine-2-carboxamide] the “activity (%) at 10 μM” value was 93%. `Cc1nc(C(=O)N[C@H]2CCCC[C@@H]2O)cc(Cc2ccc(-n3cccn3)cc2)c1Cl` [Example 98, 5-chloro-N-((1S,2S)-2-hydroxycyclohexyl)-6-methyl-4-(4-(1H-pyrazol-1-yl)benzyl)pyridine-2-carboxamide] was tested, and the “activity (%) at 10 μM” value was 94%. With `Cc1nc(C(=O)N[C@H]2COCC[C@@H]2O)cc(Cc2ccc(-n3cccn3)cc2)c1Cl` [Example 99, 1,5-anhydro-2-(((5-chloro-6-methyl-4-(4-(1H-pyrazol-1-yl)benzyl)pyridin-2-yl)carbonyl)amino)-2,4-dideoxy-L-threo-pentitol] the “activity (%) at 10 μM” value was 96%. With `Cc1nc(C(=O)N[C@H]2CCC[C@@H]2O)cc(Cc2ccc(-n3cccn3)cc2)c1Cl` [Example 100, 5-chloro-N-((1S,2S)-2-hydroxycyclopentyl)-6-methyl-4-(4-(1H-pyrazol-1-yl)benzyl)pyridine-2-carboxamide] the “activity (%) at 10 μM” value was 97%. For `Cc1nc(C(=O)N[C@H]2COCC[C@@H]2O)cc(Cc2ccc(C#N)cc2)c1Cl` [Example 101, 1,5-anhydro-2-(((5-chloro-4-(4-cyanobenzyl)-6-methylpyridin-2-yl)carbonyl)amino)-2,4-dideoxy-L-threo-pentitol], the “activity (%) at 10 μM” value was 105%. With `COc1ccc(Cc2cc(C(=O)N[C@H]3COCC[C@@H]3O)nc(C)c2Cl)cc1` [Example 102, 1,5-anhydro-2-(((5-chloro-4-(4-methoxybenzyl)-6-methylpyridin-2-yl)carbonyl)amino)-2,4-dideoxy-L-threo-pentitol] the “activity (%) at 10 μM” value was 104%. In the case of `Cc1nc(C(=O)N[C@H]2CCCC[C@@H]2O)cc(Cc2ccc(Cl)nc2)c1Cl` [Example 103, 5-chloro-4-((6-chloropyridin-3-yl)methyl)-N-((1S,2S)-2-hydroxycyclohexyl)-6-methylpyridine-2-carboxamide], the “activity (%) at 10 μM” value is reported as 109%. For `Cc1nc(C(=O)N[C@H]2CCCC[C@@H]2O)cc(Cc2ccc(C#N)nc2)c1Cl` [Example 104, 5-chloro-4-((6-cyanopyridin-3-yl)methyl)-N-((1S,2S)-2-hydroxycyclohexyl)-6-methylpyridine-2-carboxamide], the “activity (%) at 10 μM” value was 102%. For `COc1ccc(Cc2cc(C(=O)N[C@H]3CCCC[C@@H]3O)nc(C)c2Cl)cn1` [Example 105, 5-chloro-N-((1S,2S)-2-hydroxycyclohexyl)-4-((6-methoxypyridin-3-yl)methyl)-6-methylpyridine-2-carboxamide], the “activity (%) at 10 μM” value was 100%. With `COc1ccc(Cc2cc(C(=O)N[C@H]3COCC[C@@H]3O)nc(C)c2Cl)cn1` [Example 106, 1,5-anhydro-2-(((5-chloro-4-((6-methoxypyridin-3-yl)methyl)-6-methylpyridin-2-yl)carbonyl)amino)-2,4-dideoxy-L-threo-pentitol] the “activity (%) at 10 μM” value was 104%. With `Cc1nc(C(=O)N[C@H]2CCCC[C@@H]2O)cc(Cc2ccc(-c3ccn(C)n3)nc2)c1Cl` [Example 107, 5-chloro-N-((1S,2S)-2-hydroxycyclohexyl)-6-methyl-4-((6-(1-methyl-1H-pyrazol-3-yl)pyridin-3-yl)methyl)pyridine-2-carboxamide] the “activity (%) at 10 μM” value was 101%. With `CCn1cc(-c2ccc(Cc3cc(C(=O)N[C@H]4CCCC[C@@H]4O)nc(C)c3Cl)cn2)cn1` [Example 108, 5-chloro-4-((6-(1-ethyl-1H-pyrazol-4-yl)pyridin-3-yl)methyl)-N-((1S,2S)-2-hydroxycyclohexyl)-6-methylpyridine-2-carboxamide] the “activity (%) at 10 μM” value was 114%. In the case of `Cc1nn(C)cc1-c1ccc(Cc2cc(C(=O)N[C@H]3CCCC[C@@H]3O)nc(C)c2Cl)cn1` [Example 109, 5-chloro-4-((6-(1,3-dimethyl-1H-pyrazol-4-yl)pyridin-3-yl)methyl)-N-((1S,2S)-2-hydroxycyclohexyl)-6-methylpyridine-2-carboxamide], the “activity (%) at 10 μM” value is reported as 95%. In the case of `Cc1ccc(Cc2cc(C(=O)N[C@H]3CCCC[C@@H]3O)nc(C)c2Cl)cn1` [Example 110, 5-chloro-N-((1S,2S)-2-hydroxycyclohexyl)-6-methyl-4-((6-methylpyridin-3-yl)methyl)pyridine-2-carboxamide], the “activity (%) at 10 μM” value is reported as 95%.
